# Patent US7244438B2, “Uses for polycationic compounds” (Intercell AG, priority 2001, dated 2007)
# Where no end group is shown, it is not given here.
# Assays:
# [1] = system: mouse bone marrow-derived CD11c+ dendritic cells; assay: Cytokine production by dendritic cells incubated with poly-L-arginine and/or CpG-ODN (example 5); format: cell-based; conditions: CD11c+ dendritic cells incubated in vitro
# Procedure: In parallel, in vitro studies were performed to clarify whether the complexation of CpG-ODN by poly-L-arginine can also directly influence the stimulation of mouse bone marrow-derived CD11c^+ dendritic cells by CpG-ODN concerning the production of TNF-α and IL-6. For this purpose, CD11c^+ dendritic cells were incubated either with poly-L-arginine, CpG-ODN or the combination of poly-L-arginine and CpG-ODN (example 5). The levels of TNF-a and IL-6 were determined in the supernatants derived from these cultures.
# human dendritic cells = assay: Polyinosinic-polycytidylic acid-induced cytokine production by human dendritic cells; format: cell-based; conditions: human dendritic cells in vitro
# [2] = mouse, in vivo, sc
# Procedure: In order to investigate this assumption, fluorescence-labeled compounds were injected together subcutaneously into the flank of mice. At different time points after this treatment, injection sites were inspected for the presence of labeled compounds.
# Experimental Groups (1 Mouse/Group 1/Indicated Time Point, 3 Mice/Group 2–4/time Point) • 1. untreated • 2. TRP-2181-188-FITC • 3. pR60-TRITC • 4. CpG-ODN1668-Cy5 • 5. TRP-2-FITC+pR60-TRITC • 6. TRP-2181-188-FITC+CpG-ODN-Cy5 • 7. pR60-TRITC+CpG-ODN 1668-Cy5 • 8. TRP-2 181-188-FITC+pR 60-TRITC+CpG-ODN 1668-Cy5
# On day 0 mice were injected subcutaneously into the right flank with a total volume of 100 μl containing the above mentioned compounds. Animals were sacrificed at day 4 after injection and photos were taken from the injection sites (FIG. 3).
Substance,IL-6 in culture supernatants [1],TNF-α in culture supernatants [1],polyinosinic-polycytidylic acid-induced production of pro-inflammatory cytokines (human dendritic cells),TRP-2 peptide-FITC detectable at the injection site [2]
Poly-L-Arginine,neither TNF-α nor IL-6 were detectable,neither TNF-α nor IL-6 were detectable,inhibits,–
"TRP-2181-188-peptide-FITC: FITC-labeled TRP-2-Peptide (VYDFFVWL), MHC class I (H-2Kb)-restricted epitope of mouse tyrosinase related protein-2 (not fully specified (N-terminus); also: FITC label; UniProt P29812 181-188, looked up, fragment)",–,–,–,not detectable at the injection site at day 4
